Measured values reported in patent US6365610B1, “Ozonide compounds with inhibitory activity for urokinase production and angiogenesis” (Taiho Pharmaceutical Company Ltd., priority 1998, dated 2002).

Columns and labels:
urokinase = assay: Urokinase production inhibition test (HT-1080 culture supernatant urokinase activity); type: cell-based, Human; settings: HT-1080 cells
Method: This test was conducted substantially according to the method described in Biochem. Biophys. Res. Commun., 142(1), 147-54(1987) as will be described in detail below.
Human fibrosarcoma cells HT-1080 were purchased from American Type Culture Collection (product of Rockville). HT-1080 cells were cultured at 37° C. in a 5% CO2 incubator in RPMI-1640 medium (product of Nissui Seiyaku Co., Ltd.) containing 10% (v/v) of […] bovine fetal serum (product of ATLANTA Biological). The cells were suspended in 0.2% trypsin 2 mM EDTA solution for use in the experiment.
The suspension of HT-1080 cells as adjusted to 1×10^5 cells/ml was placed onto a 96-well flat-bottomed incubation plate dividedly in 200 μl quantities (2×10^4 cells/well) and incubated at 37° C. for 4 hours. The supernatant was thereafter removed and replaced with the same amount of serum-free medium [hereinafter referred to as “serum(−)”], followed by incubation for 20 hours. Subsequently, serum(−) was replaced with 199 μl of serum-containing medium [hereinafter referred to as “serum(+)”], and 1 μl of a sample solution containing an active component of the invention and prepared by dissolving the component in dimethyl sulfoxide (DMSO) was added to serum(+) in the incubation plate, followed by further incubation at 37° C. for 24 hours. The resulting supernatant was removed under suction, serum(−) was added in 200 μl quantities, followed by incubation again for 24 hours, and the supernatant of the culture was collected.
To determine the conditions for measuring urokinase activity in the supernatant, the reaction time and the concentration of a synthetic substrate were investigated using recombinant human urokinase (product of CHROMOGENIX AB) and VLKpA (valylleucyllysyl p-nitroamide, product of Sigma Chemical CO.) serving as the […] at a constant concentration (2.8 μg/ml) of plasminogen. When the culture supernatant of HT-1080 cells was checked for urokinase activity preliminarily, the activity was about 0.02 IU/μl. An urokinase solution with activity of 0.02 IU/μl was reacted with the synthetic substrate of varying concentrations.
A 85 μl portion of the culture supernatant and 15 μl of substrate reaction mixture [427 mM Tris-HCl (pH 8.0), 27 mM EDTA (pH 8.0), 1.5 mM VLKpA, 125 μg/ml plasminogen (product of CHROMOGENIX AB] were mixed together in a 96-well incubation plate and reacted at 37° C. for 30 minutes, and the reaction mixture was checked for absorbance at 405 nm using an immunoreader. The urokinase production inhibition ratio was calculated from the following equation.
Inhibition ratio (%)=(1−T/C)×100
wherein T is the average absorbance of a group given the sample, and C is the average absorbance of a control group.

[1] = tested on: fertilized egg chorioallantonic membrane (CAM); assay: Angiogenesis inhibition test, fertilized egg chorioallantonic membrane (CAM) method; type: in vivo, hen; settings: scored points over all eggs
Method: This experiment was conducted substantially according to the fertilized egg chorioallantonic membrane (abbreviated as CAM) method described in ADVANCES IN CANCER RESEARCH, vol. 43, 175-203. The fertilized hen's eggs (Plymouth Rock breed×white leghorn breed) used were purchased from Gotoh Brooder (Gifu Prefecture) and incubated in an incubator (product of Tokyo Rikagaku Kikai Co., Ltd.) at a humidity of 70% and 37° C.
The air chamber of each egg was located by illuminating the egg and the egg shell was injured with a rotary file at two locations, i.e., an upper portion of the air chamber and a side portion of the egg on day 3, taking the day when the incubation was started as day 0. About 3 ml of the albumen was aspirated through the side hole with a syringe for removal, and the air was removed from the upper portion with a dropper. With the side hole sealed with OpSite (product of Smith and Nephew Ltd.), the air chamber upper portion was injured in the form of a 1 cm square, the egg shell and the egg membrane were removed from the square area, and the opening was sealed with OpSite. The seal was removed from the opening on day 5 to form a window, which was sealed with Tegaderm (product of 3M Health Care Ltd.). A disk is made from 20 μl of 1% gelatin with drying, 20 μl of 0.5% aqueous methyl cellulose solution containing an active component of the invention was applied to the disk to form a superposed layer, and the resulting disk was dried in a clean bench. The Tegaderm seal was removed, the disk was placed at rest on the CAM, and the window was sealed again. The shell was removed from an upper portion of the egg on day 7, and 1 ml of 20% Intralipos (product of Green Cross Co., Ltd.) was injected into the egg under the CAM. The CAM was observed under a surgical microscope and photographed at a magnification of ×4 to ×8.
The effect to inhibit angiogenesis was determined substantially according to the method described in Cancer Lett., 48(2), 157-62(1989). More specifically, a vessel-free region, when found over a distance of at least 2 mm around the methyl cellulose layer, was interpreted as indicating angiogenesis inhibitory activity (+), weak inhibitory activity of less than 2 mm as indicating quasi-positive (±), and no vessel-free region within 2 mm as indicating negative (−). At least six fertilized eggs were used for testing. The angiogenesis inhibition ratio was determined by evaluating (+) as 1 point, (±) as 0.5 point and (−) as 0 point, and calculating the ratio of the points each compound scored for all the eggs used.

[2] = tested on: Lewis lung cancer strain (LLC); type: in vivo
Method: The test animals used were 7-week-old female C57BL/6 mice (Nippon Charles River) weighing 17 to 20 g. A subcutaneous tumor (1.0×10^5 cells) of Lewis lung cancer strain (LLC) was transplanted in the mice, and a suspension of a test compound in an aqueous solution of 3% ethanol and 5% gum arabic was given on day 3 and thereafter. The test compound used was compound 6, which was intraperitoneally administered at a dose of 15 mg/kg every other day. On the other hand, 100 μl of 3% ethanol-5% gum arabic aqueous solution was intraperitoneally given to a control group. The mice were checked for body weight and the major and minor diameters of the primary tumor every other day, and an estimated tumor volume (V) was determined by calculating (minor diameter)^2×(major diameter)÷2. The tumor growth inhibition ratio (%) was calculated from the estimated tumor volume of day 24 after the transplantation using the following equation.
Tumor growth inhibition ratio (%)=(1−Tv/Cv)×100
wherein Tv is the tumor volume (mm^3) of the group given the test compound, and Cv is the tumor volume (mm^3) of the control group.
The tumor was excised from each mouse, fixed with acetone, and checked for the number of lesions metastasized to the lungs to calculate the lung metastasis inhibition ratio (%) from the following equation.
Lung metastasis inhibition ratio (%)=(1−T/C)×100
wherein T is the number of metastatic nodules in the group given the test compound, and C is the number of metastatic nodules in the control group.

[3] = 15 mg/kg intraperitoneally every other day, LLC-bearing mice

melting point [°C]	Structure (SMILES)	urokinase inhibition ratio (%) (urokinase; concentration 3.13 μg/ml)	angiogenesis inhibition ratio (%) ([1]; dosage 40 μg/egg)	other results
178 to 180	CC12OOC(c3ccccc3)(O1)c1ccccc1C2c1ccccc1 (stereo not drawn) [Compound 1, 4,5-dihydro-1,5-diphenyl-4-methyl-1,4-epoxy-1H-2,3-benzodioxepin]	90.5	75	urokinase inhibition ratio (%) (urokinase; concentration 1.56 μg/ml): 90.0%; angiogenesis inhibition ratio (%) ([1]; dosage 10 μg/egg): 67%
130 to 132	CC(C)C1c2ccccc2C2(c3ccccc3)OOC1(c1ccccc1)O2 (stereo not drawn) [Compound 4, 4,5-dihydro-1,4-diphenyl-5-isopropyl-1,4-epoxy-1H-2,3-benzodioxepin]			
171 to 173	c1ccc(C2c3ccccc3C3(c4ccccc4)OOC2(c2ccccc2)O3)cc1 (stereo not drawn) [Compound 10, 4,5-dihydro-1,4,5-triphenyl-1,4-epoxy-1H-2,3-benzodioxepin]	94.1		
119	c1ccc(C23Cc4ccccc4C(c4ccccc4)(OO2)O3)cc1 (stereo not drawn) [Compound 11, 4,5-dihydro-1,4-diphenyl-1,4-epoxy-1H-2,3-benzodioxepin]	91.4		

Second part, the compound before the results:

Structure (SMILES)	melting point [°C]	urokinase inhibition ratio (%) (urokinase; concentration 3.13 μg/ml)	angiogenesis inhibition ratio (%) ([1]; dosage 40 μg/egg)	other results
Cc1ccc(C23OOC(c4ccccc4)(O2)C(C)c2ccccc23)cc1 (stereo not drawn) [Compound 2, 4,5-dihydro-5-methyl-4-phenyl-1-p-tolyl-1,4-epoxy-1H-2,3-benzodioxepin]	139 to 141			urokinase inhibition ratio (%) (urokinase; concentration 12.5 μg/ml): 88.3%
COc1ccc(C23OOC(c4ccccc4)(O2)C(C)c2ccccc23)cc1 (stereo not drawn) [Compound 3, 4,5-dihydro-1-p-anisyl-5-methyl-4-phenyl-1,4-epoxy-1H-2,3-benzodioxepin]	135 to 136	93.8	63	urokinase inhibition ratio (%) (urokinase; concentration 6.25 μg/ml): 94.4%
c1ccc(C23OOC(O2)c2cccc4cccc3c24)cc1 (stereo not drawn) [Compound 6, 1-phenyl-1,4-epoxy-1H,4H-naphtho[1,8-de][1,2]dioxepin]			100	urokinase inhibition ratio (%) (urokinase; concentration 50.0 μg/ml): 90.1%; tumor growth inhibition ratio ([2]; 15 mg/kg intraperitoneally every other day from day 3, estimated tumor volume of day 24, subcutaneous LLC in mice): 59.2%; lung metastasis inhibition ratio ([2]; 15 mg/kg intraperitoneally every other day from day 3, number of metastatic nodules in lungs, LLC in mice): 75.8%; death in the mice [2, 3]: no death; reduction in body weight [2, 3]: little or no reduction in body weight
c1ccc(C2c3ccccc3C3OC2(c2ccccc2)ON3c2ccccc2)cc1 (stereo not drawn) [Compound 8, 1,2,4,5-tetrahydro-2,4,5-triphenyl-1,4-epoxy-3,2-benzoxazepin]	155 to 156		56	urokinase inhibition ratio (%) (urokinase; concentration 25.0 μg/ml): 82.2%; urokinase inhibition ratio (%) (urokinase; concentration 50.0 μg/ml): 93.4%
CC1c2ccccc2C2(c3ccccc3)OOC1O2 (stereo not drawn) [Compound 9, 4,5-dihydro-5-methyl-1-phenyl-1,4-epoxy-1H-2,3-benzodioxepin]	127 to 128			
